Measurements reported in patent US20160146788A1, “METHOD FOR SCREENING DRUGS FOR TREATING/PREVENTING MYELODYSPLASTIC SYNDROME, ETC” (KYOTO UNIVERSITY, priority 2013, published 2016).

System: hematopoietic progenitor cells induced from MDS-iPS cells
Test: Colony formation assay of hematopoietic progenitor cells with p38 inhibitor added
Assay type: cell-based, human
Details: 10 μM SB203580 in methylcellulose medium, HPC from MDS-iPSC and Normal iPSC derived from KM5 and KM16, colonies counted after 14 or 15 days, FIG. 19
Procedure: Using a 35 mm culture dish, 2500 cells from the cells of CD43^+CD34^+CD38^− fraction induced to differentiate from iPS cells (abnormal MDS-iPSCs (NonT-iPS) and Normal iPSCs (T-iPS)) and extracted by flow cytometer were seeded in 2 ml of a methylcellulose medium containing SCF, G-CSF, GM-CSF, IL-3, IL-6 and EPO (MethoCult H4435) according to the method of Example 2. After 15 days, the number of the colonies was counted under a microscope. After Cytospin, Wright's staining was performed, and the colony type was identified by microscopic observation.
To study whether the decreased colony-forming ability of hematopoietic progenitor cells induced from MDS-iPS cells is recovered by the effect of p38 inhibitor, colony formation assay was performed by a method similar to Example 3 except that a p38 inhibitor was added. In brief, using a 35 mm culture dish, 2500 cells from the cells of CD43+CD34+CD38-fraction induced to differentiate from iPS cells (MDS-iPSCs (NonT-iPS)) and Normal iPSCs (T-iPS)) and extracted by flow cytometer were seeded in 1.1 ml of a methylcellulose medium containing SCF, G-CSF, GM-CSF, IL-3, IL-6, EPO and 10 μM SB203580 (p38 inhibitor) according to the method of Example 2. After 14 or 15 days, the number of colonies was counted under a microscope. Furthermore, after Cytospin, Wright's staining was performed, and the colony type was identified by microscopic observation.

`C[S+]([O-])c1ccc(-c2nc(-c3ccncc3)c(-c3ccc(F)cc3)[nH]2)cc1` (centres unmarked) [SB203580] was tested, and the “colony-forming ability (number of colonies)” value was “colony-forming ability-improving effect” and the “colony-forming ability (number of colonies)” value (listed as p38 inhibitor) was “improving effect on the colony-forming ability”.
